From ChEMBL document CHEMBL4371004, “A-C Estrogens as Potent and Selective Estrogen Receptor-Beta Agonists (SERBAs) to Enhance Memory Consolidation under Low-Estrogen Conditions” (J Med Chem, 2018) come the findings set out here.

The structures appear in SMILES notation. Calls of active or inactive are those of the source. The calls are words filed in the database; no cut-off is given here.

Experiment [1] deals with T1, Androgen receptor (Homo sapiens) (UniProt P10275).
T1 sequence (whole entry): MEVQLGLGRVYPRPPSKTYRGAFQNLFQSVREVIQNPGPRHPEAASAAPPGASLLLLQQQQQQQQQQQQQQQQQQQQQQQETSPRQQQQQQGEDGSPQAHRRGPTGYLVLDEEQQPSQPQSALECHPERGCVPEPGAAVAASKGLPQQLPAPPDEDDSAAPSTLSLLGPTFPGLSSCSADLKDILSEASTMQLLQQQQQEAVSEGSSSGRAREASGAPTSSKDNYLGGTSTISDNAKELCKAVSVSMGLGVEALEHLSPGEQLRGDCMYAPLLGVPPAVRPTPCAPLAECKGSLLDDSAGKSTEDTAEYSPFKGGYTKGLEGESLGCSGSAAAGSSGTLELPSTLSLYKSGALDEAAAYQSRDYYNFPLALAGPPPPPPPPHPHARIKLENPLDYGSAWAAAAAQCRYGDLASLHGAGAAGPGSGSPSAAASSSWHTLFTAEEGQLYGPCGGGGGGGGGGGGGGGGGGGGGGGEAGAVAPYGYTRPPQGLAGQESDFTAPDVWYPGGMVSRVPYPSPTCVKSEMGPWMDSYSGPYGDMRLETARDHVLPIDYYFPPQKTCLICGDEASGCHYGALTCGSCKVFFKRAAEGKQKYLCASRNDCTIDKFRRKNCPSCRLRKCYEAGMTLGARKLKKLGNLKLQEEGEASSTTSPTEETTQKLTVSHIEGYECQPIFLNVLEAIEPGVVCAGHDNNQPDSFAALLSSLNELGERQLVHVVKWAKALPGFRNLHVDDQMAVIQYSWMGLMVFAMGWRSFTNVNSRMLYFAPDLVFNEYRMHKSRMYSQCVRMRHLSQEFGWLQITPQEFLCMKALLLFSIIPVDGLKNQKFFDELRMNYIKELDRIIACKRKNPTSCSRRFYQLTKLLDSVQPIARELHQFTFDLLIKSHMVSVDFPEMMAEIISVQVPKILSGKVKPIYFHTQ
As to the kind of experiment: Agonist activity at GAL4 DNA binding domain fused androgen receptor ligand binding domain (unknown origin) at 0.25 to 25 uM by FRET-based assay.

Experiment [2] addresses T2, Glucocorticoid receptor (Homo sapiens) (UniProt P04150).
T2 sequence (whole entry): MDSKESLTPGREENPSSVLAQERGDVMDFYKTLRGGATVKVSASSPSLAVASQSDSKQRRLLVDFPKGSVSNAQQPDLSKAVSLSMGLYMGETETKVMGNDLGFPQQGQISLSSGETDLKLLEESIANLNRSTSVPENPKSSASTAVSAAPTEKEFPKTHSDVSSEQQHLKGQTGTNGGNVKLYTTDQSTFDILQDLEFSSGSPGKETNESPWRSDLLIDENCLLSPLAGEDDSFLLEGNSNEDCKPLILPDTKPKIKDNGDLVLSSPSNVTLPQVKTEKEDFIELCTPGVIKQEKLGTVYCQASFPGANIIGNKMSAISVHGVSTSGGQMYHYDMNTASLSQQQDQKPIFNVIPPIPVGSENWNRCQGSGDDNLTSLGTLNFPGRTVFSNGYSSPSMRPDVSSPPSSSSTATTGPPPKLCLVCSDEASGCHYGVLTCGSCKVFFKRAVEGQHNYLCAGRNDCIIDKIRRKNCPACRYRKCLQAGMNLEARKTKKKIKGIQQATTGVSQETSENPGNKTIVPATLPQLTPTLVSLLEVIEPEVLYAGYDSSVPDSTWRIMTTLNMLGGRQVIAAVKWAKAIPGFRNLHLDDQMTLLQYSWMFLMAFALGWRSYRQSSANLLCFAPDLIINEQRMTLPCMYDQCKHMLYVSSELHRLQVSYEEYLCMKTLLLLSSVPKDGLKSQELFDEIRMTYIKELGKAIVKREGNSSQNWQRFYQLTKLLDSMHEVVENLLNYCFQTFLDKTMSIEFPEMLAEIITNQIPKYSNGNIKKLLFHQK
As to the kind of experiment: Agonist activity at GAL4 DNA binding domain fused glucocorticoid receptor ligand binding domain (unknown origin) at 0.25 to 25 uM by FRET-based assay.

The target of experiment [3] is T3, Thyroid hormone receptor beta (Homo sapiens) (UniProt P10828).
T3 sequence (whole entry): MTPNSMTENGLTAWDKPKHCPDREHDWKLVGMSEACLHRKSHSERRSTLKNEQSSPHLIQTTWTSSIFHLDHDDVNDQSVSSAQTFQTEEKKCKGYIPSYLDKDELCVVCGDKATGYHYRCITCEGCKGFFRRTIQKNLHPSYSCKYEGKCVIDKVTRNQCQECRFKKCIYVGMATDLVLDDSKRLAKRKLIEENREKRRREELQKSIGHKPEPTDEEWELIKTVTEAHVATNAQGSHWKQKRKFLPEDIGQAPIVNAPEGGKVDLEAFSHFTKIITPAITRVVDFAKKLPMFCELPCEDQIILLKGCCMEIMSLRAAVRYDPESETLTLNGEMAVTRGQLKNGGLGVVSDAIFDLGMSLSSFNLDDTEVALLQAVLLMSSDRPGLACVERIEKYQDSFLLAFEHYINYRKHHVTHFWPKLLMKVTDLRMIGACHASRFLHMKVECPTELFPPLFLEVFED
As to the kind of experiment: Agonist activity at GAL4 DNA binding domain fused thyroid hormone receptor beta (unknown origin) at 0.25 to 25 uM by FRET-based assay.

Experiment [4] concerns the target T4, Vitamin D3 receptor (Homo sapiens) (UniProt P11473).
T4 sequence (whole entry): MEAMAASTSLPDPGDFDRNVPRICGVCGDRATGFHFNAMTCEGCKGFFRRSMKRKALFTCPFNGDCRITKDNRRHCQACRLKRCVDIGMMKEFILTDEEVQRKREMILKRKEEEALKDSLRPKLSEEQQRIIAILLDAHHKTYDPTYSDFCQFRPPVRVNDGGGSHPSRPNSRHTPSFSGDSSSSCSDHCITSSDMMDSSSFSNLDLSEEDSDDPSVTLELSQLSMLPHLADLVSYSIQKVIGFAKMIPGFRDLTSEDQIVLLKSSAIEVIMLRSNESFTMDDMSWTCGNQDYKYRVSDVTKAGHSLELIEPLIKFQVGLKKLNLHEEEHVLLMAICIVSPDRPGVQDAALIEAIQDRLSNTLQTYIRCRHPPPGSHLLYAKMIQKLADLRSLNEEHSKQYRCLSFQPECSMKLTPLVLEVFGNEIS
As to the kind of experiment: Agonist activity at GAL4 DNA binding domain fused VDR ligand binding domain (unknown origin) at 0.25 to 25 uM by FRET-based assay.

Experiment [5] deals with Mus musculus. As to the kind of experiment: Memory enhancement effect in C57BL/6 mouse assessed as time spent with moved object at 1 ng administered as dorsal hippocampal infusion by novel object recognition test. Format: functional.
Experiment [6] deals with Mus musculus. As to the kind of experiment: Memory enhancement effect in C57BL/6 mouse assessed as time spent with moved object at 0.5 mg/kg, po administered via gavage by object recognition test. Format: functional.

Turning to `OC[C@H]1CC[C@H](c2ccc(O)cc2)CC1`, the result in experiment [1], in experiment [2], in experiment [3] and in experiment [4] was inactive. Besides, the Time with Mus musculus [5] stood at 3.4 s; with Mus musculus [6], 3.65 s.
